Measured values published in patent publication US20060247261A1 (priority 2002, published 2006).
pEC50: −log10 of the molar value.

Target: T1, human cannabinoid CB2 receptor (Homo sapiens, UniProt P34972)
T1 construct: expressed in transfected cells; host or cells: Saccharomyces cerevisiae strain MMY23 (expresses a chimeric Gpa1/human Galpha-i3 G-protein alpha subunit)
Assay: Cannabinoid CB2 receptor agonist activity, yeast reporter assay
Assay type: cell-based
Settings: for Emax: read-out: efficacy (Emax) at the cloned human cannabinoid CB2 receptor
Text: Yeast (Saccharomyces cerevisiae) cells expressing the human cannabinoid CB2 receptor were generated by integration of an expression cassette into the ura3 chromosomal locus of yeast strain MMY23. This cassette consisted of DNA sequence encoding the human CB2 receptor flanked by the yeast GPD promoter to the 5′ end of CB2 and a yeast transcriptional terminator sequence to the 3′ end of CB2. MMY23 expresses a yeast/mammalian chimeric G-protein alpha subunit in which the C-terminal 5 amino acids of Gpa1 are replaced with the C-terminal 5 amino acids of human Gαi3 (as described in Brown et al. (2000), Yeast 16:11-22).
Agonists were prepared as 10 mM stocks in DMSO. […] Agonist solutions in DMSO (1% final assay volume) were transferred into black, clear bottom, microtitre plates from NUNC (96- or 384-well). […] Fluorescence was plotted against compound concentration and iteratively curve fitted using a four parameter fit to generate a concentration effect value.

T1 sequence (P34972 whole entry): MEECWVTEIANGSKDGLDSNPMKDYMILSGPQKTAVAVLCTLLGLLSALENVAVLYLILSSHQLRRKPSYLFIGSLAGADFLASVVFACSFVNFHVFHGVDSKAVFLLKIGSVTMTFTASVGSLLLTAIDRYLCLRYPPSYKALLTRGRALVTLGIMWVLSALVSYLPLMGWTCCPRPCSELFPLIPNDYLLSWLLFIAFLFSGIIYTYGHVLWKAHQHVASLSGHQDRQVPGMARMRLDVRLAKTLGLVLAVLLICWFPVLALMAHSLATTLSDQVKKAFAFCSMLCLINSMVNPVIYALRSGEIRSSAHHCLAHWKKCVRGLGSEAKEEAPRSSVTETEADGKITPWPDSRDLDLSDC

SMILES | pEC50 | Emax
CN(Cc1ccccc1)C(=O)c1cnc(Nc2ccc(Cl)cc2)nc1C(F)(F)F [Example 45, 2-(4-Chloro-phenylamino)-4-trifluoromethyl-pyrimidine-5-carboxylic acid N-benzyl-N-methyl-amide] | < 6.00 | < 50%
COc1ccc(Nc2ncc(C(=O)NCc3ccccc3)c(C(F)(F)F)n2)cc1 [Example 46, 2-(4-Methoxy-phenylamino)-4-trifluoromethyl-pyrimidine-5-carboxylic acid N-benzylamide] | < 6.00 | < 50%
COc1ccc(Nc2ncc(C(=O)N(C)Cc3ccccc3)c(C(F)(F)F)n2)cc1 [Example 47, 2-(4-Methoxy-phenylamino)-4-trifluoromethyl-pyrimidine-5-carboxylic acid N-benzyl-N-methyl-amide] | < 6.00 | < 50%
CN(Cc1ccccc1)C(=O)c1cnc(Nc2cccc(C#N)c2)nc1C(F)(F)F [Example 48, 2-(3-Cyano-phenylamino)-4-trifluoromethyl-pyrimidine-5-carboxylic acid N-benzyl-N-methyl-amide] | < 6.00 | < 50%
CN(Cc1ccccc1)C(=O)c1cnc(Nc2ccc(C#N)cc2)nc1C(F)(F)F [Example 49, 2-(4-Cyano-phenylamino)-4-trifluoromethyl-pyrimidine-5-carboxylic acid N-benzyl-N-methyl-amide] | < 6.00 | < 50%
COc1cccc(CNC(=O)c2cnc(Nc3cccc(Cl)c3)nc2C(F)(F)F)c1 [Example 50, 2-(3-Chloro-phenylamino)-4-trifluoromethyl-pyrimidine-5-carboxylic acid N-(3-methoxybenzyl)amide] | < 6.00 | < 50%
O=C(NCc1ccccc1Cl)c1cnc(Nc2cccc(Cl)c2)nc1C(F)(F)F [Example 51, 2-(3-Chloro-phenylamino)-4-trifluoromethyl-pyrimidine-5-carboxylic acid N-(2-chlorobenzyl)amide] | < 6.00 | < 50%
O=C(NCc1cccc(Cl)c1)c1cnc(Nc2cccc(Cl)c2)nc1C(F)(F)F [Example 52, 2-(3-Chloro-phenylamino)-4-trifluoromethyl-pyrimidine-5-carboxylic acid N-(3-chlorobenzyl)amide] | < 6.00 | < 50%
CCN(Cc1ccccc1)C(=O)c1cnc(Nc2ccccc2Cl)nc1C(F)(F)F [Example 53, 2-(2-Chloro-phenylamino)-4-trifluoromethyl-pyrimidine-5-carboxylic acid N-benzyl-N-ethyl-amide] | < 6.00 | < 50%
CN(Cc1ccccc1)C(=O)c1cnc(Nc2ccc(Cl)cc2Cl)nc1C(F)(F)F [Example 54, 2-(2,4-Dichloro-phenylamino)-4-trifluoroniethyl-pyrimidine-5-carboxylic acid N-benzyl-N methyl-amide] | < 6.00 | < 50%
CN(Cc1ccccc1)C(=O)c1cnc(Nc2ccc(Cl)c(Cl)c2)nc1C(F)(F)F [Example 55, 2-(3,4-Dichloro-phenylamino)-4-trifluoromethyl-pyrimidine-5-carboxylic acid N-benzyl-N-methyl-amide] | < 6.00 | < 50%
O=C(NCc1ccccc1)c1cnc(Nc2cc(Cl)ccc2Cl)nc1C(F)(F)F [Example 56, 2-(2,5-Dichloro-phenylamino)-4-trifluoromethyl-pyrimidine-5-carboxylic acid N-benzylamide] | < 6.00 | < 50%
CN(Cc1ccccc1)C(=O)c1cnc(Nc2cc(Cl)cc(Cl)c2)nc1C(F)(F)F [Example 57, 2-(3,5-Dichloro-phenylamino)-4-trifluoromethyl-pyrimidine-5-carboxylic acid N-benzyl-N-methyl-amide] | < 6.00 | < 50%
CN(Cc1ccccc1)C(=O)c1cnc(Nc2cc(Cl)ccc2Cl)nc1C(F)(F)F [Example 58, 2-(2,5-Dichloro-phenylamino)-4-trifluoromethyl-pyrimidine-5-carboxylic acid N-benzyl-N-methyl-amide] | < 6.00 | < 50%
O=C(NCc1ccccn1)c1cnc(Nc2cccc(Cl)c2)nc1C(F)(F)F [Example 59, 2-(3-Chloro-phenylamino)-4-trifluoromethyl-pyrimidine-5-carboxylic acid N-(pyridin-2-ylmethyl)-amide] | < 6.00 | < 50%
O=C(NCc1cccnc1)c1cnc(Nc2cccc(Cl)c2)nc1C(F)(F)F [Example 60, 2-(3-Chloro-phenylamino)-4-trifluoromethyl-pyrimidine-5-carboxylic acid N-(pyridin-3-ylmetbyl)-amide] | < 6.00 | < 50%

SMILES | pEC50 | Emax
O=C(NCc1cc(F)cc(F)c1)c1cnc(Nc2cccc(Cl)c2)nc1C(F)(F)F [Example 61, 2-(3-Chloro-phenylamino)-4-trifluoromethyl-pyrimidine-5-carboxylic acid N-(3,5-difluoro-benzyl)amide] | < 6.00 | < 50%
O=C(NCc1ccc(OC(F)(F)F)cc1)c1cnc(Nc2cccc(Cl)c2)nc1C(F)(F)F [Example 62, 2-(3-Chloro-phenylamino)-4-trifluoromethyl-pyrimidine-5-carboxylic acid N-(4-trifluoromethoxybenzyl)amide] | < 6.00 | < 50%
O=C(NCc1ccc(Br)cc1)c1cnc(Nc2cccc(Cl)c2)nc1C(F)(F)F [Example 63, 2-(3-Chloro-phenylamino)-4-trifluoromethyl-pyrimidine-5-carboxylic acid N-(4-bromo-benzyl)amide] | < 6.00 | < 50%
N#Cc1ccc(CNC(=O)c2cnc(Nc3cccc(Br)c3)nc2C(F)(F)F)cc1 [Example 64, 2-(3-Bromo-phenylamino)-4-trifluoromethyl-pyrimidine-5-carboxylic acid N-(4-cyano-benzyl)amide] | < 6.00 | < 50%
N#Cc1ccc(CNC(=O)c2cnc(Nc3cccc(Cl)c3Cl)nc2C(F)(F)F)cc1 [Example 65, 2-(2,3-Dichloro-phenylamino)-4-trifluoromethyl-pyrimidine-5-carboxylic acid N-(4-cyano-benzyl)amide] | < 6.00 | < 50%
N#Cc1ccc(CNC(=O)c2cnc(Nc3ccc(Cl)cc3Cl)nc2C(F)(F)F)cc1 [Example 66, 2-(2,4-Dichloro-phenylamino)-4-trifluoromethyl-pyrimidine-5-carboxylic acid N-(4-cyano-benzyl)amide] | < 6.00 | < 50%
N#Cc1ccc(CNC(=O)c2cnc(Nc3cc(Cl)ccc3Cl)nc2C(F)(F)F)cc1 [Example 67, 2-(2,5-Dichloro-phenylamino)-4-trifluoromethyl-pyrimidine-5-carboxylic acid N-(4-cyano-benzyl)amide] | < 6.00 | < 50%
N#Cc1ccc(CNC(=O)c2cnc(Nc3ccc(Cl)c(Cl)c3)nc2C(F)(F)F)cc1 [Example 68, 2-(3,4-Dichloro-phenylamino)-4-trifluoromethyl-pyrimidine-5-carboxylic acid N-(4-cyano-benzyl)amide] | < 6.00 | < 50%
O=C(NCc1ccncc1)c1cnc(Nc2c(Cl)cccc2Cl)nc1C(F)(F)F [Example 69, 2-(2,6-Dichloro-phenylamino)-4-trifluorometbyl-pyrimidine-5-carboxylic acid N-(pyridin-4-ylmethyl)-amide] | < 6.00 | < 50%
O=C(NCc1ccc(F)cc1)c1cnc(Nc2c(Cl)cccc2Cl)nc1C(F)(F)F [Example 70, 2-(2,6-Dichloro-phenylamino)-4-trifluoromethyl-pyrimidine-5-carboxylic acid N-(4-fluoro-benzyl)amide] | < 6.00 | < 50%
N#Cc1ccc(CNC(=O)c2cnc(Nc3c(Cl)cccc3Cl)nc2C(F)(F)F)cc1 [Example 71, 2-(2,6-Dichloro-phenylamino)-4-trifluoroniethyl-pyrimidine-5-carboxylic acid N-(4-cyano-benzyl)amide] | < 6.00 | < 50%
O=C(NCc1ccc(F)cc1Cl)c1cnc(Nc2cccc(Cl)c2)nc1C(F)(F)F [Example 72, 2-(3-Chloro-phenylamino)-4-trifluoromethyl-pyrimidine-5-carboxylic acid N-(2-chloro-4-fluoro-benzyl)amide] | < 6.00 | < 50%
O=C(NCc1ccc(F)cc1C(F)(F)F)c1cnc(Nc2cccc(Cl)c2)nc1C(F)(F)F [Example 74, 2-(3-Chloro-phenylamino)-4-trifluoromethyl-pyrimidine-5-carboxylic acid N-(4-fluoro-2-trifluoromethyl-benzyl)amide] | < 6.00 | < 50%
O=C(NCc1ccc(F)c(C(F)(F)F)c1)c1cnc(Nc2cccc(Cl)c2)nc1C(F)(F)F [Example 75, 2-(3-Chloro-phenylamino)-4-trifluoromethyl-pyrimidine-5-carboxylic acid N-(4-fluoro-3-trifluoromethyl-benzyl)amide] | < 6.00 | < 50%
O=C(NCc1ccncn1)c1cnc(Nc2cccc(F)c2)nc1C(F)(F)F [Example 76, 2-(3-Fluoro-phenylamino)-4-trifluoromethyl-pyrimidine-5-carboxylic acid N-(pyrimidin-4-ylmethyl)-amide] | < 6.00 | < 50%
Cc1cc(CNC(=O)c2cnc(Nc3cccc(F)c3)nc2C(F)(F)F)ccn1 [Example 77, 2-(3-Fluoro-phenylamino)-4-trifluoromethyl-pyrimidine-5-carboxylic acid N-(2-methyl-pyridin-4-ylmethyl)-amide] | < 6.00 | < 50%
